# Results taken from patent US20030207877A1, “Pyridoquinoxaline antivirals” (priority 2001, published 2003).
# pIC50: −log10 of the molar value.
# Columns and labels:
# [1] = target: T1, HCMV polymerase (Human cytomegalovirus, UniProt P08546); test: HCMV polymerase assay (scintillation proximity assay), original and modified version; type: biochemical; details: SPA; several values per example = repeat determinations, assay version not given; read-out: CMV Polymerase IC50
# T1 construct: made in house; host or cells: SF-9 insect cells infected with recombinant baculovirus
# Protocol: The HCMV polymerase assay is performed using a scintillation proximity assay (SPA) as described in several references, such as N.D. Cook, et al., Pharmaceutical Manufacturing International, pages 49-53 (1992); K. Takeuchi, Laboratory Practice, September issue (1992); U.S. Pat. No. 4,568,649 (1986); which are incorporated by reference herein. Reactions are performed in 96-well plates. The assay is conducted in 100 μl volume with 5.4 mM HEPES (pH 7.5), 11.7 MM KCl, 4.5 mM MgCl2, 0.36 mg/ml BSA, and 90 nM ^3H-dTTP. Assays are run with and without CHAPS, (3-[(3-Cholamidopropyl)-dimethylammoniol-1-propane-sulfonate) at a final concentration of 2 mM. HCMV polymerase is diluted in enzyme dilution buffer containing 50% glycerol, 250 mM NaCl, 10 mM HEPES (pH 7.5), 100 μg/ml BSA, and 0.01% sodium azide. The HCMV polymerase, which is expressed in recombinant baculovirus-infected SF-9 cells and purified according to literature procedures, is added at 10% (or 10 μl) of the final reaction volume, i.e., 100 μl. Compounds are diluted in 50% DMSO and 10 μl are added to each well. Control wells contain an equivalent concentration of DMSO. Unless noted otherwise, reactions are initiated via the addition of 6 nM biotinylated poly(dA)-oligo(dT) template/primer to reaction mixtures containing the enzyme, substrate, and compounds of interest. Plates are incubated in a 25° C. or 37° C. H2O bath and terminated via the addition of 40 μl/reaction of 0.5 M EDTA (pH 8) per well. Reactions are terminated within the time-frame during which substrate incorporation is linear and varied depending upon the enzyme and conditions used, i.e., 30 min. for HCMV polymerase. Ten (10) μl of streptavidin-SPA beads (20 mg/ml in PBS/10% glycerol) are added following termination of the reaction. Plates are incubated 10 min. at 37° C., then equilibrated to room temperature, and counted on a Packard Topcount. Linear regressions are performed and IC50's are calculated using computer software.
# A modified version of the above HCMV polymerase assay is performed as described above, but with the following changes: Compounds are diluted in 100% DMSO until final dilution into assay buffer. In the previous assay, compounds are diluted in 50% DMSO. 4.5 mM dithiotherotol (DTT) is added to the polymerase buffer.
# T1 sequence (P08546 whole entry): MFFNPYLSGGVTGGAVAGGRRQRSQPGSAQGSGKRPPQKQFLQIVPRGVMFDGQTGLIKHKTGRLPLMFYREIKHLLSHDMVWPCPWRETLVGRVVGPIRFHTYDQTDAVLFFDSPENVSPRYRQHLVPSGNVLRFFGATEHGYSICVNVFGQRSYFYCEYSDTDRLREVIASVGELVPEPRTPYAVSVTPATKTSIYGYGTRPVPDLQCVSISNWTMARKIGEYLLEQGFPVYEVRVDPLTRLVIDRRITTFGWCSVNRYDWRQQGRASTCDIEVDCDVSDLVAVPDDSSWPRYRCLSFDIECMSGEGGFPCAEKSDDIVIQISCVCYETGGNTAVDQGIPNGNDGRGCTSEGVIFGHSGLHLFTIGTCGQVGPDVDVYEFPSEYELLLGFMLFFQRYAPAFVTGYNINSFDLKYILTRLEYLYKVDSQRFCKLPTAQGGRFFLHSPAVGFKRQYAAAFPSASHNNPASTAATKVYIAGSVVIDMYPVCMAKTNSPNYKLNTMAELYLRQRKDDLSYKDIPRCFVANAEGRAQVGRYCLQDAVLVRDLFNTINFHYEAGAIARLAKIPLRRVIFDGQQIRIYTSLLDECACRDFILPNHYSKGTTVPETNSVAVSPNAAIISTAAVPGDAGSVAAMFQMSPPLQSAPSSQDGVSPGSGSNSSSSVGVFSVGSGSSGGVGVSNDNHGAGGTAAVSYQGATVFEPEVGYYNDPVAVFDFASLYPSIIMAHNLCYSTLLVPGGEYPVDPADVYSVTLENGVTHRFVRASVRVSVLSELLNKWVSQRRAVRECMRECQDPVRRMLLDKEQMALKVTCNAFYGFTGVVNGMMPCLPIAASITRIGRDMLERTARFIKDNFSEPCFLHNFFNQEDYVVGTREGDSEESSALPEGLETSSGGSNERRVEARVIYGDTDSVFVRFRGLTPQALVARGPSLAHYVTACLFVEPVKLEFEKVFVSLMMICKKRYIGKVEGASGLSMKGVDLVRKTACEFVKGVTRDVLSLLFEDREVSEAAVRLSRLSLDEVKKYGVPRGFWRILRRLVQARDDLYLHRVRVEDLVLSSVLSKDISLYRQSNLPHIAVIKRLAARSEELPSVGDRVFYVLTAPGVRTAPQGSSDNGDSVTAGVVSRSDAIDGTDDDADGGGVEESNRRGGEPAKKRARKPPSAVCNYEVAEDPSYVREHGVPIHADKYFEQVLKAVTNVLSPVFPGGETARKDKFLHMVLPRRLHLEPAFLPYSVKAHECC
SMILES,pIC50 [1],melting point [°C]
"CN(Cc1cc2c3c(c1)c(=O)c(C(=O)NCc1ccc(Cl)cc1)cn3CC(=O)N2C)CC(O)c1ccccc1 (stereo not drawn) [Example 1, N-(4-chlorobenzyl)-9-{[(2-hydroxy-2-phenylethyl) (methyl)amino]methyl}-1-methyl-2,7-dioxo-2,3-dihydro-1H,7H-pyrido[1,2,3-de]quinoxaline-6-carboxamide]",6.66,
"CN(Cc1cc2c3c(c1)c(=O)c(C(=O)NCc1ccc(Cl)cc1)cn3CC(=O)N2C)CC(O)c1ccco1 (racemic) [Example 5, rac N-(4-chlorobenzyl)-9-{([2-(2-furyl)-2-hydroxyethyl](methyl)amino)methyl}-1-methyl-2,7-dioxo-2,3-dihydro-1H,7H-pyrido[1,2,3-de]quinoxaline-6-carboxamide]",6.62,153 to 155
"Cc1cc(C(O)CN(C)Cc2cc3c4c(c2)c(=O)c(C(=O)NCc2ccc(Cl)cc2)cn4CC(=O)N3C)c(C)o1 (racemic) [Example 7, rac N-(4-chlorobenzyl)-9-{([2-(2,5-dimethyl-3-furyl)-2-hydroxyethyl](methyl)amino)methyl}-1-methyl-2,7-dioxo-2,3-dihydro-1H,7H-pyrido[1,2,3-de]quinoxaline-6-carboxamide]",6.60,157 to 160
"CN(Cc1cc2c3c(c1)c(=O)c(C(=O)NCc1ccc(Cl)cc1)cn3CC(=O)N2C)C[C@@H](O)c1ccsc1 [Example 14, N-(4-chlorobenzyl)-9-{[[(2S)-2-hydroxy-2-thien-3-ylethyl](methyl)amino]methyl}-1-methyl-2,7-dioxo-2,3-dihydro-1H,7H-pyrido[1,2,3-de]quinoxaline-6-carboxamide]",6.72,137 to 139
"CN(Cc1cc2c3c(c1)c(=O)c(C(=O)NCc1ccc(Cl)cc1)cn3CC(=O)N2C)CC(O)c1ccc(C#N)s1 (racemic) [Example 20, rac N-(4-chlorobenzyl)-9-{([2-(5-cyanothein-2-yl)-2-hydroxyethyl](methyl)amino)methyl}-1-methyl-2,7-dioxo-2,3-dihydro-1H,7H-pyrido[1,2,3-de]quinoxaline-6-carboxamide]",6.39,122 to 126
"Cc1cccc(C(O)CN(C)Cc2cc3c4c(c2)c(=O)c(C(=O)NCc2ccc(Cl)cc2)cn4CC(=O)N3C)n1 (racemic) [Example 8, rac N-(4-chlorobenzyl)-9-{([2-hydroxy-2-(6-methylpyridin-2-yl)ethyl](methyl)amino)methyl}-1-methyl-2,7-dioxo-2,3-dihydro-1H,7H-pyrido [1,2,3-de]quinoxaline-6-carboxamide]",5.96,156 to 158
"COc1cccc(C(O)CN(C)Cc2cc3c4c(c2)c(=O)c(C(=O)NCc2ccc(Cl)cc2)cn4CC(=O)N3C)c1 (racemic) [Example 18, rac N-(4-chlorobenzyl)-9-{([2-hydroxy-2-(3-methoxyphenyl)ethyl](methyl)amino)methyl}-1-methyl-2,7-dioxo-2,3-dihydro-1H,7H-pyrido[1,2,3-de]quinoxaline-6-carboxamide]",6.74,154 to 156
"CN(Cc1cc2c3c(c1)c(=O)c(C(=O)NCc1ccc(Cl)cc1)cn3CC(=O)N2C)C[C@@H](O)c1ccccn1 [Example 9, N-(4-chlorobenzyl)-9-{[[(2R)-2-hydroxy-2-pyridin-2-ylethyl](methyl)amino]methyl}-1-methyl-2,7-dioxo-2,3-dihydro-1H,7H-pyrido[1,2,3-de]quinoxaline-6-carboxamide]",6.52,

# More lines, now with the values ahead:
pIC50 [1],melting point [°C],SMILES
6.09,150 to 152,"CN(Cc1cc2c3c(c1)c(=O)c(C(=O)NCc1ccc(F)cc1)cn3CC(=O)N2C)C[C@@H](O)c1ccccc1 [Example 29, N-(4-fluorobenzyl)-9-{[[(2S)-2-hydroxy-2-phenylethyl](methyl)amino]methyl}-1-methyl-2,7-dioxo-2,3-dihydro-1H,7H-pyrido[1,2,3-de]quinoxaline-6-carboxamide]"
6.38,150 to 152,"CN(Cc1cc2c3c(c1)c(=O)c(C(=O)NCc1ccc(F)cc1)cn3CC(=O)N2C)C[C@@H](O)c1ccco1 [Example 23, N-(4-fluorobenzyl)-9-{[[(2R)-2-(2-furyl)-2-hydroxyethyl](methyl)amino]methyl}-1-methyl-2,7-dioxo-2,3-dihydro-1H,7H-pyrido[1,2,3-de]quinoxaline-6-carboxamide]"
5.92,195 to 197,"CN(Cc1cc2c3c(c1)c(=O)c(C(=O)NCc1ccc(F)cc1)cn3CC(=O)N2C)C[C@H](O)c1cc2ccccc2o1 [Example 37, 9-{[[(2S)-2-(1-benzofuran-2-yl)-2-hydroxyethyl](methyl)amino]methyl}-N-(4-fluorobenzyl)-1-methyl-2,7-dioxo-2,3-dihydro-1H,7H-pyrido[1,2,3-de]quinoxaline-6-carboxamide]"
> 7.52,94 to 96,"CN(Cc1cc2c3c(c1)c(=O)c(C(=O)NCc1ccc(F)cc1)cn3CC(=O)N2C)C[C@@H](O)c1cc2ccccc2o1 [Example 36, 9-{[[(2R)-2-(1-benzofuran-2-yl)-2-hydroxyethyl](methyl)amino]methyl}-N-(4-fluorobenzyl)-1-methyl-2,7-dioxo-2,3-dihydro-1H,7H-pyrido[1,2,3-de]quinoxaline-6-carboxamide]"
6.16,150 to 152,"CN(Cc1cc2c3c(c1)c(=O)c(C(=O)NCc1ccc(F)cc1)cn3CC(=O)N2C)C[C@@H](O)c1ccsc1 [Example 28, N-(4-fluorobenzyl)-9-{[[(2S)-2-hydroxy-2-thien-3-ylethyl](methyl)amino]methyl}-1-methyl-2,7-dioxo-2,3-dihydro-1H,7H-pyrido[1,2,3-de]quinoxaline-6-carboxamide]"
6.24,113 to 115,"CN(Cc1cc2c3c(c1)c(=O)c(C(=O)NCc1ccc(F)cc1)cn3CC(=O)N2C)C[C@@H](O)c1cccs1 [Example 32, N-(4-fluorobenzyl)-9-{[[(2R)-2-hydroxy-2-thien-2-ylethyl](methyl)amino]methyl}-1-methyl-2,7-dioxo-2,3-dihydro-1H,7H-pyrido[1,2,3-de]quinoxaline-6-carboxamide]"
5.54,166 to 167,"CN(Cc1cc2c3c(c1)c(=O)c(C(=O)NCc1ccc(Cl)cc1)cn3CC(=O)N2CCO)C[C@@H](O)c1ccco1 [Example 31, N-(4-chlorobenzyl)-9-{([(2R)-2-(2-furyl)-2-hydroxyethyl](methyl)amino)methyl}-1-(2-hydroxyethyl)-2,7-dioxo-2,3-dihydro-1H,7H-pyrido[1,2,3-de]quinoxaline-6-carboxamide]"
6.74,,"CN(Cc1cc2c3c(c1)c(=O)c(C(=O)NCc1ccc(Cl)cc1)cn3CC(=O)N2C)C[C@H](O)c1cc2ccccc2o1 [Example 35, 9-{[[(2S)-2-(1-benzofuran-2-yl)-2-hydroxyethyl](methyl)amino]methyl}-N-(4-chlorobenzyl)-1-methyl-2,7-dioxo-2,3-dihydro-1H,7H-pyrido[1,2,3-de]quinoxaline-6-carboxamide]"
8.40,,"CN(Cc1cc2c3c(c1)c(=O)c(C(=O)NCc1ccc(Cl)cc1)cn3CC(=O)N2C)C[C@@H](O)c1cc2ccccc2o1 [Example 34, 9-{[[(2R)-2-(1-benzofuran-2-yl)-2-hydroxyethyl](methyl)amino]methyl)-N-(4-chlorobenzyl)-1-methyl-2,7-dioxo-2,3-dihydro-1H,7H-pyrido[1,2,3-de]quinoxaline-6-carboxamide]"
